From publication PMC2709226 (Plant Molecular Biology, 2008)

How the values were obtained:
acINV [1] = biological target: acINV (Allium cepa, UniProt O81083); test: biochemical
acINV [2] = biological target: acINV (Allium cepa, UniProt O81083, W440Y); test: biochemical

Km (acINV [1]): 5.8 ± 1.9 mM | Km (acINV [2]): 8.8 ± 2.4 mM
Structure (SMILES): OC[C@H]1O[C@@](CO)(O[C@H]2O[C@H](CO)[C@@H](O)[C@H](O)[C@H]2O)[C@@H](O)[C@@H]1O [sucrose]
